In publication PMC10218941, “Design, Synthesis, Antiproliferative Actions, and DFT Studies of New Bis–Pyrazoline Derivatives as Dual EGFR/BRAF^V600E Inhibitors” (International Journal of Molecular Sciences, 2023):

Experiments:
Type in all cases: cell-based, human
[1] = tested on: Bax; test: Bax level assay; details: MCF-7 cells; for Bax Fold Change: versus untreated control
Procedure: (§1) Additionally, the effects of compounds 12 and 17 on the levels of caspase-8, Bax, and Bacl-2 in the MCF-7 cancer cell line and staurosporine as a control were examined. […]
Cells were obtained from American Type Culture Collection, cells were grown in RPMI 1640 containing 10% fetal bovine serum at 37°C, stimulated with the compounds to be tested for caspase8, and lysed with Cell Extraction Buffer. This lysate was diluted in Standard Diluent Buffer over the range of the assay and measured for human active caspase-8 content. […]
4.2.5. Bax activation assay
Bring all reagents, except the human Bax-α Standard, to room temperature for at least 30 minutes prior to opening. The human Bax-α Standard solution should not be left at room temperature for more than 10 minutes. All standards, controls and samples should be run in duplicate. Refer to the Assay Layout Sheet to determine the number of wells to be used and put any remaining wells with the desiccant back into the pouch and seal the ziploc. Store unused wells at 4 °C. Pipet 100 μL of Assay Buffer into the S0 (0 pg/mL standard) wells. Pipet 100 μL of Standards #1 through #6 into the appropriate wells. Pipet 100 μL of the Samples into the appropriate wells. Tap the plate gently to mix the contents. Seal the plate and incubate at room temperature on a plate shaker for 1 hour at ~500 rpm. Empty the contents of the wells and wash by adding 400 μL of wash solution to every well. Repeat the wash 4 more times for a total of 5 washes. After the final wash, empty or aspirate the wells and firmly tap the plate on a lint free paper towel to remove any remaining wash buffer. Pipet 100 μL of yellow Antibody into each well, except the Blank. Seal the plate and incubate at room temperature on a plate shaker for 1 hour at ~500 rpm. Empty the contents of the wells and wash by adding 400 μL of wash solution to every well. Repeat the wash 4 more times for a total of 5 washes. After the final wash, empty or aspirate the wells and firmly tap the plate on a lint free paper towel to remove any remaining wash buffer. Add 100 μL of blue Conjugate to each well, except the Blank. Seal the plate and incubate at room temperature on a plate shaker for 30 minutes at ~500 rpm. Empty the contents of the wells and wash by adding 400 μL of wash solution to every well. Repeat the wash 4 more times for a total of 5 washes. After the final wash, empty or aspirate the wells and firmly tap the plate on a lint free paper towel to remove any remaining wash buffer. Pipet 100 μL of Substrate Solution into each well. Incubate for 30 minutes at room temperature on a plate shaker at ~500 rpm. Pipet 100 μL Stop Solution to each well. Blank the plate reader against the Blank wells, read the optical density at 450 nm. Calculate the average net Optical Density (OD) bound for each standard and sample by subtracting the average Blank OD from the average OD for each standard and sample.
Using linear graph paper, plot the Average Net OD for each standard versus Bax concentration in each standard. Approximate a straight line through the points. The concentration of Bax in the unknowns can be determined by interpolation. […]
Cover with a plate cover and incubate at room temperature, on a microplate shaker at 100 rpm if available, for 2 hours. Remove plate cover and empty the wells.
(§2) Wash microwell strips 3 times as described in step 2. Add 100 μL of diluted Streptavidin-HRP to all wells, including the blank wells. Cover with a plate cover and incubate at room temperature, on a microplate shaker at 100 rpm if available, for 1 hour. Remove plate cover and empty the wells.
(§3) Wash microwell strips 3 times as described in step 2. Proceed to the next step. Pipette 100 μl of mixed TMB Substrate Solution to all wells, including the blanks. Incubate the microwell strips at room temperature (18° to 25°C) for about 15 minutes, if available on a rotator set at 100 rpm.
Avoid direct exposure to intense light. […]

[2] = tested on: caspase-8; test: Caspase-8 level assay; details: MCF-7 cells; for Caspase-8 Fold Change: versus untreated control
Procedure: as §1
The solution in the wells should change from blue to yellow. Read the absorbance of each well at 450 nm having blanked the plate reader against a chromogen blank composed of 100 μl each of Stabilized Chromogen and Stop Solution. Read the plate within 2 hours after adding the Stop Solution. Use a curve fitting software to generate the standard curve. A four-parameter algorithm provides the best standard curve fit. Read the concentrations for unknown samples and controls from the standard curve. Multiply value(s) obtained for sample(s) by the appropriate dilution factor to correct for the dilution in step 3. Samples producing signals greater than that of the highest standard should be diluted in Standard Diluent Buffer and reanalyzed.
4.2.4. Caspase-8 activation assay
Cells were obtained from American Type Culture Collection, cells were grown in RPMI 1640 containing 10% fetal bovine serum at 37°C, stimulated with the compounds to be tested for caspase8, and lysed with Cell Extraction Buffer. This lysate was diluted in Standard Diluent Buffer over the range of the assay and measured for human active caspase-8 content. (Cells are Plated in a density of 1.2 – 1.8 × 10,000 cells/well in a volume of 100µl complete growth medium + 100 ul of the tested compound per well in a 96-well plate for 24 hours before the enzyme assay for Tubulin.). The absorbance of each microwell was read on a spectro-photometer at 450 nm. A standard curve is prepared from 7human Caspase-8 standard dilutions and human Caspase-8 concentration determined. […]

[3] = tested on: Bcl-2; test: Bcl-2 level assay; details: MCF-7 cells; for Bcl-2 Fold Reduction: versus untreated control
Procedure: as §1
4.2.6. Bcl-2inhibition assay
Mix all reagents thoroughly without foaming before use. Wash the microwells twice with approximately 300 μL Wash Buffer per well with thorough aspiration of microwell contents between washes. Take caution not to scratch the surface of the microwells. After the last wash, empty the wells and tap microwell strips on absorbent pad or paper towel to remove excess Wash Buffer. Use the microwell strips immediately after washing or place upside down on a wet absorbent paper for not longer than 15 minutes. […] Add 100 μL of Sample […]
Diluent in duplicate to all standard wells and to the blank wells. Prepare standard (1:2 dilution) in duplicate ranging from 32 ng/mL to 0.5 ng/mL. Add 100 μL of Sample Diluent, in duplicate, to the blank wells. Add 80 μL of Sample Diluent, in duplicate, to the sample wells. Add 20 μL of each Sample, in duplicate, to the designated wells. Add 50 μL of diluted biotin-conjugate to all wells, including the blank wells. Cover with a plate cover and incubate at room temperature, on a microplate shaker at 100 rpm if available, for 2 hours. Remove plate cover and empty the wells.
as §2, §3
Avoid direct exposure to intense light. The point, at which the substrate reaction is stopped, is often determined by the ELISA reader. Many ELISA readers record absorbance only up to 2.0
O.D. Therefore, the color development within individual microwells must be watched by the person running the assay and the substrate reaction stopped before positive wells are no longer properly detectable. Stop the enzyme reaction by quickly pipetting 100 μL of Stop Solution into each well, including the blank wells. It is important that the Stop Solution is spread quickly and uniformly throughout the microwells to completely inactivate the enzyme. Results must be read immediately after the Stop Solution is added or within one hour if the microwell strips are stored at 2 - 8°C in the dark. Read absorbance of each microwell on a spectrophotometer using 450 nm as the primary wavelength.
4.3. Statistical analysis
Computerized Prism 5 program was used to statistically analyzed data using one-way ANOVA test followed by Tukey’s as post ANOVA for multiple comparison at P ≤.05. Data were presented

SMILES | Bax Conc [1] | Bax Fold Change [1] | Caspase-8 Conc [2] | Caspase-8 Fold Change [2] | Bcl-2 Conc [3] | Bcl-2 Fold Reduction [3]
COc1ccc(C2CC(c3ccc(OCC(=O)Nc4ccc(C5=NNC(c6ccc(OC)c(OC)c6)C5)cc4)cc3)=NN2)cc1 (stereo not drawn) [Compound 12, 2-(4-(5-(4-Methoxyphenyl)-4,5-dihydro-1H-pyrazol-3-yl)phenoxy)-N-(4-(5-(3,4-dimethoxyphenyl)-4,5-dihydro-1H-pyrazol-3-yl)phenyl)acetamide] | 296 pg/mL | 37 | 1.87 ng/mL | 21 | 1.05 ng/mL | 5
COc1ccc(C2CC(c3ccc(NC(=O)COc4ccc(C5=NNC(c6ccc(OC)c(OC)c6)C5)cc4)cc3)=NN2)cc1 (stereo not drawn) [Compound 17, 2-(4-(5-(3,4-Dimethoxyphenyl)-4,5-dihydro-1H-pyrazol-3-yl)phenoxy)-N-(4-(5-(4-methoxyphenyl)-4,5-dihydro-1H-pyrazol-3-yl)phenyl)acetamide] | 285 pg/mL | 35 | 1.77 ng/mL | 20 | 1.15 ng/mL | 4
CN[C@@H]1C[C@H]2O[C@@](C)([C@@H]1OC)n1c3ccccc3c3c4c(c5c6ccccc6n2c5c31)C(=O)NC4 [Staurosporine, reference compound] | 280 pg/mL | 35 | 1.80 ng/mL | 20 | 1.10 ng/mL | 5
